The source of these data is PubChem BioAssay (NCI).

Among the test systems are SK-MEL-5 melanoma; CCRF-CEM leukemia; RXF 393 renal; NCI-H522 lung; HL-60(TB) leukemia; EKVX NSCLC; OVCAR-8 ovarian; SNB-19 CNS; UACC-62 melanoma; NCI-H460 lung.
Holding throughout (test): NCI-60 cell line screen, 48 h

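Interpolation was linear, between the two tested concentrations surrounding the appropriate level; five concentrations were tested over 48 hours in 96-well plates. GI50 marks 50% less growth. At the TGI there is no net growth.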

Take `CC1(C)OC2C(=O)C=C(COCc3ccccc3)C2O1` (stereo unspecified): the TGI with SK-MEL-5 melanoma was 25.8 µM; in the assay on CCRF-CEM leukemia, greater than 100 µM; with RXF 393 renal, 45.8 µM; with NCI-H522 lung it was 38 µM; in the assay on HL-60(TB) leukemia, 77.1 µM; in the assay with EKVX NSCLC, greater than 100 µM. In addition, the TGI with OVCAR-8 ovarian was greater than 100 µM; in the assay with SNB-19 CNS, greater than 100 µM; with UACC-62 melanoma it was 28.6 µM.
For the compound `CN(C)CCC(/C=C/c1ccccc1)=N\Nc1ccc(Cl)cc1Cl`, the TGI stood at 26.2 µM in the assay on SK-MEL-5 melanoma; 25.8 µM in the assay with CCRF-CEM leukemia; 21 µM in the assay on RXF 393 renal; 30.6 µM in the assay with NCI-H522 lung; 16.7 µM in the assay with HL-60(TB) leukemia; 31.1 µM with EKVX NSCLC. Moreover, the TGI with OVCAR-8 ovarian is 30.3 µM; in the assay on NCI-H460 lung it was 28.1 µM; with SNB-19 CNS, 29.4 µM; in the assay on UACC-62 melanoma, 21.4 µM.
Take `C[CH2][Pb]([CH2]C)([CH2]C)[O]C(=O)c1ccc2ccccc2n1`: the GI50 in the assay on SK-MEL-5 melanoma, in the assay with CCRF-CEM leukemia, in the assay on RXF 393 renal, in the assay with NCI-H522 lung, with HL-60(TB) leukemia and in the assay on EKVX NSCLC was greater than 10 µM in each case. The GI50 with OVCAR-8 ovarian, in the assay on NCI-H460 lung, with SNB-19 CNS and in the assay on UACC-62 melanoma was greater than 10 µM throughout. The TGI in the assay on SK-MEL-5 melanoma, in the assay with CCRF-CEM leukemia, in the assay on RXF 393 renal, in the assay on NCI-H522 lung, in the assay on HL-60(TB) leukemia and with EKVX NSCLC was greater than 10 µM throughout. In addition, the TGI with OVCAR-8 ovarian, with NCI-H460 lung, in the assay on SNB-19 CNS and in the assay on UACC-62 melanoma was greater than 10 µM in each case.
For the compound `CSC(=S)N/N=C(\C)c1cccc(C)n1`, the TGI in the assay on SK-MEL-5 melanoma was 8.56 µM; with CCRF-CEM leukemia, 0.102 µM; in the assay on RXF 393 renal, 13.8 µM; in the assay on NCI-H522 lung it was 3.01 µM; with HL-60(TB) leukemia, 3.07 µM; with EKVX NSCLC, greater than 43.3 µM. In addition, the TGI in the assay on OVCAR-8 ovarian was 28.1 µM; in the assay with NCI-H460 lung, 9.79 µM; in the assay on SNB-19 CNS it was greater than 100 µM; with UACC-62 melanoma, 3.67 µM.
Consider `O=P1(Oc2ccccc2)C(c2ccccc2)C(c2ccccc2)=NN1c1ccccc1` (stereo unspecified), for which the TGI in the assay on CCRF-CEM leukemia was greater than 100 µM; in the assay on RXF 393 renal it was 40.7 µM; in the assay with NCI-H522 lung, 36.4 µM; with HL-60(TB) leukemia, 47 µM; in the assay with EKVX NSCLC, greater than 100 µM; in the assay on OVCAR-8 ovarian, greater than 100 µM. Further, the TGI in the assay with NCI-H460 lung is 60.9 µM; with SNB-19 CNS, greater than 100 µM; with UACC-62 melanoma it was 35.3 µM.
With `CCCCn1c(=O)c2c(nc3n2CCCN3CCc2ccc(OCC(=O)NCCN(CC)CC)cc2)n(CCCC)c1=O`, the GI50 in the assay on SK-MEL-5 melanoma was 0.864 µM; in the assay with CCRF-CEM leukemia, 1.13 µM; in the assay with RXF 393 renal, 1.65 µM; in the assay on NCI-H522 lung, 7.5 µM; in the assay with HL-60(TB) leukemia it was 5.97 µM; in the assay with EKVX NSCLC, 5.2 µM. Further, the GI50 in the assay on OVCAR-8 ovarian was 7.1 µM; in the assay with NCI-H460 lung, 2.2 µM; in the assay with SNB-19 CNS, 3.24 µM. Moreover, the TGI in the assay on SK-MEL-5 melanoma came out at 1.65 µM; with CCRF-CEM leukemia, 3.9 µM; in the assay with RXF 393 renal it was 6.76 µM; in the assay with NCI-H522 lung, 16.7 µM; in the assay with HL-60(TB) leukemia it was 15.6 µM; in the assay with EKVX NSCLC, 11.7 µM. Also, the TGI with OVCAR-8 ovarian was determined as 26.4 µM; in the assay on NCI-H460 lung it was 7.94 µM; in the assay with SNB-19 CNS it was 11.4 µM.
In the case of `CN(CCCCCl)P(=O)(OCCS(=O)(=O)CC(NC(=O)CCC(N)C(=O)O)C(=O)NC(C(=O)O)c1ccccc1)OCC1OC(n2cc(F)c(=O)[nH]c2=O)CC1O` (stereo unspecified), the GI50 with SK-MEL-5 melanoma was 0.989 µM; in the assay with CCRF-CEM leukemia, less than 0.0376 µM; in the assay with RXF 393 renal it was 4 µM; in the assay on NCI-H522 lung, 0.266 µM; with HL-60(TB) leukemia it was 4.87 µM; in the assay with EKVX NSCLC it was 39.2 µM. Further, the GI50 with OVCAR-8 ovarian is 0.274 µM; in the assay on NCI-H460 lung, less than 0.01 µM; in the assay on SNB-19 CNS it was 1.3 µM; with UACC-62 melanoma it was greater than 100 µM. Moreover, the TGI with SK-MEL-5 melanoma is 15.9 µM; in the assay on CCRF-CEM leukemia it was 33.1 µM; in the assay with RXF 393 renal, greater than 100 µM; in the assay with NCI-H522 lung it was greater than 57.4 µM; in the assay on HL-60(TB) leukemia, 31.3 µM; in the assay on EKVX NSCLC, greater than 100 µM. Further, the TGI with OVCAR-8 ovarian, in the assay on SNB-19 CNS and with UACC-62 melanoma was greater than 100 µM each time.
On to `CC1(C)OCC(C(O)C2OC(C)(C)OC2/C=N\O)O1` (stereo unspecified), for which the TGI in the assay with SK-MEL-5 melanoma, in the assay on CCRF-CEM leukemia, in the assay on RXF 393 renal, with NCI-H522 lung, with HL-60(TB) leukemia and in the assay with EKVX NSCLC was greater than 100 µM in each case. For the same compound, the TGI in the assay on OVCAR-8 ovarian, in the assay with NCI-H460 lung and in the assay on SNB-19 CNS was greater than 100 µM throughout.
As for `COC(CN1C=C(Sc2ccccc2)CC1)OC`, the TGI in the assay with SK-MEL-5 melanoma is 34.7 µM; in the assay with CCRF-CEM leukemia it was 62.8 µM; in the assay on RXF 393 renal, 66.6 µM; in the assay on HL-60(TB) leukemia it was 34 µM; with EKVX NSCLC, greater than 100 µM; with OVCAR-8 ovarian it was 86.9 µM. Besides, the TGI in the assay on NCI-H460 lung, in the assay with SNB-19 CNS and in the assay with UACC-62 melanoma was greater than 100 µM in each case.
In the case of `CCN(Cc1ccc(Cl)s1)c1ccc(CO)c(Cl)c1`, the GI50 is 1.9 µM in the assay on SK-MEL-5 melanoma; 13.1 µM with CCRF-CEM leukemia; 2.1 µM in the assay with RXF 393 renal; 15.2 µM with NCI-H522 lung; 3.11 µM in the assay with HL-60(TB) leukemia; 5.75 µM in the assay on OVCAR-8 ovarian. In addition, the GI50 in the assay with NCI-H460 lung is 0.202 µM; with SNB-19 CNS, 20.7 µM; in the assay with UACC-62 melanoma, 0.0861 µM. Besides, the TGI in the assay with SK-MEL-5 melanoma was 18.1 µM; in the assay with CCRF-CEM leukemia, greater than 81.1 µM; in the assay on RXF 393 renal, 14.6 µM; in the assay with NCI-H522 lung, 37 µM; with HL-60(TB) leukemia, 26.2 µM; in the assay with OVCAR-8 ovarian, 27.6 µM. Also, the TGI in the assay on NCI-H460 lung is 10 µM; in the assay with SNB-19 CNS, greater than 93.5 µM; in the assay on UACC-62 melanoma, 0.438 µM.
